Results on one molecule are retold here after EP0672419A1, “BLOOD PRESSURE REGULATOR” (Asahi Kasei Kogyo Kabushiki Kaisha, priority 1991, dated 1995).

Each structure is given as a SMILES string.

This test has as its system adult mongrel dogs. As to the kind of experiment: Phenylephrine-induced hypertension in four anesthetized dogs (Example 8). Type of test: in vivo, dog. Conditions: after administ. of phenylephrine 10 min.; 10 µg/kg/min, before CGRP. Here is the method: Example 6 was repeated by substantially almost same manner using four adult mongrel dogs, mean body weight 12.3±3.0 kg, applying same anesthetic condition. After setting up the experiment at more than 60 minutes passing and confirming to stabilize the depth of anesthesia and blood flow, phenylephrine (hypertensor) 10 µg/kg/min was administered.
Further after 10 minutes passed, the active ingredient, desalanyl-deamino-c-CGRP 10 µg/kg/hr was administered and at 10 min. and 20 min. after administration of the active ingredient, heart rate (HR) and mean a artery pressure (MAP) were measured.

Regarding `CNC[C@H](O)c1cccc(O)c1` [phenylephrine], the “HR: Heart rate” value worked out at 138.0±9.3 beat/min and the “MAP: Mean artery pressure” value is listed as 159.0±6.2 mmHg.
